# According to patent US20100209484A1, “Transdermal Triptan Delivery System” (priority 2009, published 2010):
# Where two headings read alike, the source gives them in different places.
# What was measured:
# [1] = cited from earlier work
# [2] = Physical observation of patches by eye or microscope; format: physicochemical
# Text: Permeation is increased for a given concentration of triptan if the triptan is in solution in the matrix. The patches of Table 9 were stored at the room temperature for the designated period of time then observed by eye or/and a microscope. No crystals or white spots have been observed, and the patches are clear. […] This function has not previously been known for this class of compounds.
# [3] = tested on: isolated hairless mouse skin; test: Skin permeation rate, flow-through diffusion cells; format: in vitro ADME; settings: for Flux / Lag time: n = 3
# Protocol: Skin permeation rates of various zolmitriptan/enhancer formulations were determined using flow through diffusion cells. Permeation experiments were done on isolated hairless mouse skin. A system comprising a multi channel peristaltic pump, a fraction collector, a circulating water bath and flow-through diffusion cells was used. Each flow-through cell had two arms, which allowed the receiver cell medium pumped to a fraction collector. The diffusion cell temperature was maintained at 37° C. by circulating water through the outer part of jacketed receiver cell. The surface area of receiver cell opening as 2 cm^2, and its volume was 5.5 ml Skin was excised from hairless mouse that was sacrificed with diethyl ether. Subcutaneous fat was removed with scissors and scalpel. Each of the flow-through diffusion cell components was connected via silicone rubber tubing with an internal diameter of 0.015 inches. The receiver cell was filled with a pH 6 buffer solution and the media stirred by Teflon-coated magnetic bar. The transdermal device was placed on the stratum corneum and the excised skin was mounted onto each receiver cell. And O-ring and cell top was placed on the top of each skin. These components are then clamped. The amount of drug permeated across the skin was calculated from the cumulative release. The samples were collected every 4 hours for 24 hours and assayed by HPLC. This method was used to measure skin permeation rates referred to as transdermal flux or flux in the examples. Zolmitriptan was analyzed by an HPLC system (Shimadzu Scientific Instruments, MD), consisting of a UV detector (SPD-10A), reversed-phase C8 column, a pump (LC-10AD), and an automatic injector (SIL-10A). The method had been previously described (Vyas et. al., 2005). Briefly, the wavelength of the UV detector was 229 nm, the column temperature was maintained at 30° C., the flow rate was 1 ml/min and injection volume was 10 μl. The mobile phase used consisted of acetonitrile/phosphate buffer pH 7.5 (15/85).
# [4] = Solubility of zolmitriptan in pressure sensitive adhesive matrixes; format: physicochemical; settings: silicone and PIB adhesive matrixes
# [5] = cited from earlier work; remark: listed apart in the source
# [6] = acrylic adhesive matrix without functional group, zolmitriptan 4 wt%
# [7] = adhesive matrix 87-2287 (hydroxyl functional group), zolmitriptan 4 wt%
# [8] = adhesive matrix 87-2510 (hydroxyl functional group), zolmitriptan 4 wt%
# [9] = adhesive matrix 87-2516 (hydroxyl functional group), zolmitriptan 4 wt%
# [10] = drug concentration 4 wt% in 87-2510 matrix
# [11] = drug concentration 5 wt% in 87-2510 matrix
# [12] = drug concentration 7.5 wt% in 87-2510 matrix
# [13] = drug concentration 10 wt% in 87-2510 matrix
# [14] = matrix thickness 25 μm, 4% drug loading, 87-2510
# [15] = matrix thickness 60 μm, 4% drug loading, 87-2510
# [16] = matrix thickness 95 μm, 4% drug loading, 87-2510
# [17] = matrix thickness 130 μm, 4% drug loading, 87-2510
# [18] = matrix thickness 165 μm, 4% drug loading, 87-2510
smiles,measurement,setting,value
CN1CCC[C@@H]1Cc1c[nH]c2ccc(CCS(=O)(=O)c3ccccc3)cc12 [Eletriptan],bioavailable amount after oral ingestion,[1],50%
CN(C)CCc1c[nH]c2ccc(Cn3cncn3)cc12 [Rizatriptan],bioavailable amount after oral ingestion,[1],47%
CN[C@@H]1CCc2[nH]c3ccc(C(N)=O)cc3c2C1 [Frovatriptan],bioavailable amount after oral ingestion,[1]; in females,30%
same,bioavailable amount after oral ingestion,[1]; in males,24%
CNS(=O)(=O)Cc1ccc2[nH]cc(CCN(C)C)c2c1 [Sumatriptan],bioavailable amount after oral ingestion,[1],14%
CN(C)CCc1c[nH]c2ccc(CS(=O)(=O)N3CCCC3)cc12 [Almotriptan],bioavailable amount after oral ingestion,[1],69%
CN(C)CCc1c[nH]c2ccc(C[C@H]3COC(=O)N3)cc12 [Zolmitriptan],patch appearance,[2]; 4% drug load in 87-2510 matrix,clear
same,patch appearance,[2]; 5% or more drug load in 87-2510 matrix,milky
same,bioavailable amount after oral ingestion,[1],40%
same,Flux,[3]; [6],6.16 μg/cm^2hr
same,Lag time,[3]; [6],10.7 h
same,Flux,[3]; [7],6.5 μg/cm^2hr
same,Lag time,[3]; [7],13.0 h
same,Flux,[3]; [8],15.6 μg/cm^2hr
same,Lag time,[3]; [8],9.3 h
same,Flux,[3]; [9],14.4 μg/cm^2hr
same,Lag time,[3]; [9],11.8 h
same,Flux,"[3]; adhesive matrix with carboxyl functional group, zolmitriptan 4 wt%",0.22 μg/cm^2hr
same,Flux,[3]; [10],13.5 μg/cm^2hr
same,Lag time,[3]; [10],8.2 h
same,Flux,[3]; [11],14.8 μg/cm^2hr
same,Lag time,[3]; [11],8.5 h
same,Flux,[3]; [12],15.8 μg/cm^2hr
same,Lag time,[3]; [12],8.4 h
same,Flux,[3]; [13],18.3 μg/cm^2hr
same,Lag time,[3]; [13],9.0 h
same,change of flux with drug loading,[3]; drug loading in 87-2510 matrix increased from 4% to 10%,did not change significantly
same,Flux,[3]; [14],1.2 μg/cm^2hr
same,Lag time,[3]; [14],9.0 h
same,Flux,[3]; [15],6.1 μg/cm^2hr
same,Lag time,[3]; [15],5.5 h
same,Flux,[3]; [16],11.7 μg/cm^2hr
same,Lag time,[3]; [16],5.2 h
same,Flux,[3]; [17],14.1 μg/cm^2hr
same,Lag time,[3]; [17],7.0 h
same,Flux,[3]; [18],13.0 μg/cm^2hr
same,Lag time,[3]; [18],7.4 h
same,solubility in adhesive matrix,[4],inadequate
same,pKa,[5],9.64
same,solubility,[5]; in water and methanol,soluble
CNS(=O)(=O)CCc1ccc2[nH]cc(C3CCN(C)CC3)c2c1 [Naratriptan],bioavailable amount after oral ingestion,[1]; in females,74%
same,bioavailable amount after oral ingestion,[1]; in males,63%
